{"source": "paper PMC4627230", "about": "“Identification of TAX2 peptide as a new unpredicted anti-cancer agent” (Oncotarget, 2015)", "key": {"[1]": {"test_system": "microvessel sprouting from mouse aortic rings (C57BL/6)", "assay": "Mouse aortic ring assay (ex vivo)", "settings": "100 μM, 6 days, mouse aortic ring in matrigel", "description": "Figure 2 TAX2 peptide impairs endothelial cell migration and inhibits angiogenesis in vitro and ex vivo A. HUVECs were treated with TAX2 (100 μM) or scrambled peptide (Ctrl, 100 μM). CD47 was immunoprecipitated from total protein lysates using anti-CD47 (clone B6H12) and non-specific IgGs were used as a negative control. Immunocomplexes were then submitted to SDS-PAGE and immunoblotted (IB) using specific TSP-1 and CD47 antibodies. Histogram represents the quantification of co-immunoprecipitated TSP-1 relative to immunoprecipitated CD47. Results are expressed as percentage compared to control (n = 3 separate experiments, t test). B. HUVECs (1 × 10^5 per well) were grown at confluence and then cell proliferation was inhibited by incubating with 10 μg/mL mitomycin C for 2 h. […] Graph represents the quantification of the wounded area. […] Hoechst-stained migrating cells attached on outside surface of the top chamber were photographed (20× objective) and counted. Results are expressed as percentage of migrated cells as compared to control. […] After 8 h incubation, HUVEC tube-like formation was observed on an inverted microscope (40×) and quantification of network total length was done using ImageJ software. […] Data are expressed as the mean ± SE from at least 3 independent experiments, each performed in triplicate. […] The transcriptional level of TSP-1 was assessed by RT-PCR and normalized to β-actin. […]"}, "[2]": {"test_system": "tumor vasculature of MIA PaCa-2 xenograft in BALB/C nu/nu mice", "assay": "MIA PaCa-2 xenograft vascularization (μCT, dissection)", "format": "in vivo, human tumor xenograft in mouse", "settings": "10 mg/kg i.p. 3 times a week for 4 weeks", "description": "For the subcutaneous melanoma tumor model, suspensions of B16F1 cells (2.5 × 10^5 cells in 100 μL RPMI-1640 medium) were subcutaneously injected into the left flank of different randomized series of syngeneic C57BL/6 mice (n = 8–10 per group), as previously described. Intraperitoneal administrations of peptide (10 mg/kg mouse weight) or controls (physiological serum 0.9% (w/v) NaCl or a scrambled peptide) were performed at days 3, 5 and 7. In human pancreatic carcinoma xenograft experiments, 3 × 10^6 MIA PaCa-2 cells/mouse were implanted subcutaneously into the left flank of BALB/C athymic nude mice, then TAX2 intraperitoneal treatments (10 mg/kg mouse weight) were performed 3 times a week during 4 weeks starting at day 10 after tumor cells inoculation. Tumor volume was determined according to v = 0.5 A × B^2, where A denotes the largest dimension of the tumor and B represents the smallest dimension. At days indicated, mice were sacrificed and tumors were surgically extracted and fixed in 4% paraformaldehyde for further morphologic studies and for magnetic resonance imaging, or frozen for immunohistochemistry. Mice were also weighed every 2–3 days and daily checked for any modification in their behavior. Loss of 15% body weight was an indication for euthanasia as well as severe tumor necrosis, as it was sometimes associated with skin ulceration that would result in loss of body fluid and/or infection.\nAnimals were anesthetized by isoflurane (Forene, Abbott France, Rungis, France) inhalation (3% for induction and 1–1.5% for maintenance) and then after placed in a carbon fibers bed. CT images were acquired on a dedicated small animal μCT scanner (Skyscan 1076, Bruker, Kontich, Belgium) while continuously rotating the camera by 180° with the following parameters: 50 kV, 0.5 mm Al filter, 200 μA source current, 35 μm isotropic resolution, 180 ms exposure time, 4 projection images per 0.7° rotation step and a retrospective synchronization. […] Analysis of reconstructed images and quantification of the vascular network were performed using Amira 5.4.3 software."}}}
{"sequence": "CEVSQLLKGDAC (disulfide) [TAX2, CD47-derived cyclic disulfide dodecapeptide …]", "values": [{"measurement": "microvessel sprouting from the aorta", "setting": "[1]", "value": "markedly inhibited"}, {"measurement": "tumor vasculature in dissections, day 38", "setting": "[2]", "value": "decreased tumor vasculature"}, {"measurement": "tumor-associated vascular network in 3D reconstruction, day 38", "setting": "[2]", "value": "strongly inhibit tumor-associated vascular network"}, {"measurement": "tumor vascularization until day 38", "setting": "[2]; μCT, representative of n = 5", "value": "striking alteration of tumor vascularization"}]}
